Measurements: patent US4873250A, “Antimicrobial compound and compositions particulary effective against candida albicans” (The University of Mississippi, priority 1988, dated 1989)
≈ marks a conversion by molar mass, not a printed value.

What was measured:
Candida albicans B311 = assay: Minimum inhibitory concentration (MIC), twofold serial broth dilution assay, Candida albicans B311; assay type: cell-based; conditions: yeast nitrogen broth, 24 and 48 hours at 37°
Procedure: (§1) The method used to determine the minimum inhibitory concentration (MIC) of the inventive compound was a twofold serial broth dilution assay in yeast nitrogen broth. In addition to Candida albicans B311, the MIC values for onychine were also determined for two additional strains of Candida albicans: ATCC 10231 and a clinical isolate, designated WH. Also tested were Mycobacterium smegmatis 607, Bacillus subtilis, 6633, Cryptococcus neoformans 32264, Aspergillus flavus 9170, Aspergillus fumigatus 26934, and Trichophyton mentagrophytes 9972. The inventive compound was initally tested using a concentration of 100 μg/ml in the first tube. The compound was added to sterile Sabourauddextrose broth as a solution in DMSO. The inoculum for the MIC determination was prepared as described for qualitative evaluation. Using a calibrated sterile wire loop, 10μl of the 10^6 CFU/ml suspension of Candida albicans was used as inoculum for each tube. The MIC value was taken as the lowest concentration of compound that inhibited the growth of the test organisms after 24 and 48 hours of incubation at 37°. The antifungal agents amphotericin-B and ketoconazole were included as standards in each screen. The results of the MIC testing for various pathogenic agents is set out in Table I.

Candida albicans [1] = assay: Anticandidal activity, agar-well diffusion assay (zone of inhibition); assay type: cell-based; conditions: three test strains of Candida albicans; pure compounds at 1 mg/ml; 37° for 24 hours
Procedure: In vitro evaluation of the anticandidal activity of the inventive compound and compositions was carried out using the agar-well diffusion assay as follows:
Candida albicans NIH B311 used to induce experimental disseminated candidiasis was used for the initial qualitative evaluation of anticandidal activity. The organism was grown in Sabouraud-dextrose broth (SDB) for 14 hours at 37°, at which time the cells were harvested by centrifugation (4°, 2000 rpm, 3 min). After centrifugation, the cells were washed and suspended in sterile 0.9% saline to give a final concentration of 10^6 colony forming units (CFU) per ml (adjusted using a hemocytometer). Culture plates (15×100 mm) for the qualitative assay were prepared from 25 ml of Sabouraud-dextrose agar. Using sterile cotton swabs, the plates were streaked with the suspension (10^6 CFU/ml) of Candida albicans B311. Cylindrical plugs were removed from the agar plates by means of a sterile cork borer to produce wells with a diameter of approximately 11 mm. To the well was added 100 μl of solution or suspension of an extract, fraction, or pure compound. Crude extracts and fractions were tested at a concentration of 20 mg/ml, whereas pure compounds were tested at 1 mg/ml. […] Anticandidal activity was recorded as the width (in mm) of the zone of inhibition following incubation of the plates at 37° for 24 hours. […]

Candida albicans WH = assay: Minimum inhibitory concentration (MIC), twofold serial broth dilution assay, Candida albicans WH (clinical isolate); assay type: cell-based; conditions: 24 and 48 hours at 37°
Procedure: as §1

Candida albicans 10231 = assay: Minimum inhibitory concentration (MIC), twofold serial broth dilution assay, Candida albicans ATCC 10231; assay type: cell-based; conditions: ATCC10231, 24 and 48 hours at 37°
Procedure: as §1

Candida albicans [2] = assay: In vivo disseminated Candida albicans infection in mice, CFU recovered from the kidneys; design: species or system outbred mice; conditions: for % Reduction: kidney CFU versus vehicle control; for CFU/g × 10^6 (range): kidney
Procedure: In the in vivo testing of the invention onychine, outbred mice were used. A disseminated infection of Candida albicans in the test animals was achieved by intravenous injection of 10^6 CFU of the pathogen. The organism is rapidly cleared from the blood and most tissues, except the kidney which is the primary target organ for the disseminated infection in mice. It is known than an inoculum of 10^6 CFU will produce a disseminated infection in outbred mice within […]. Onychine was administered to infected mice by intraperitoneal injection 7 hrs post-inoculation. The vehicle used for administering the compound of the invention was a mixture consisting of 50% USP water, 40% propylene glycol and 10% absolute ethonol.

[3] = under varying conditions; cited from earlier work
Candida albicans [4] = conditions: reported in Journal of Natural Products, Vol. 50, No. 5, pp. 961-964, 1987; cited from earlier work

Cc1ccnc2c1C(=O)c1ccccc1-2 [Onychine, 1-methyl-4-azafluoren-9-one]
MIC (Candida albicans B311): 3.12 µg/mL (≈ 16 µM)
zone of inhibition (Candida albicans [1]): remarkable zone of inhibition
MIC (Candida albicans WH): 25 µg/mL (≈ 128 µM)
MIC (Candida albicans 10231): 1.56 µg/mL (≈ 7.99 µM)
number of CFU of Candida albicans recovered from the kidneys versus vehicle treated control mice (Candida albicans [2]; 0.1 mg/kg intraperitoneal 7 hrs post-inoculation): significantly lower
% Reduction (Candida albicans [2]; 0.1 mg/kg intraperitoneal, n=8, P 0.047): 95.5%
% Reduction (Candida albicans [2]; 0.5 mg/kg intraperitoneal, n=7, P 0.082): 86.7%
CFU/g × 10^6 (range) (Candida albicans [2]; 0.1 mg/kg intraperitoneal 7 hrs post-inoculation, n=8, range 0.05-0.3, P 0.047): 0.17 CFU/g × 10^6
CFU/g × 10^6 (range) (Candida albicans [2]; 0.5 mg/kg intraperitoneal 7 hrs post-inoculation, n=7, range 0.11-1.05, P 0.082): 0.50 CFU/g × 10^6

CC1C=CC=CC=CC=CC=CC=CC=CC(OC2OC(C)C(O)C(N)C2O)CC2OC(O)(CC(O)CC(O)C(O)CCC(O)CC(O)CC(=O)OC(C)C(C)C1O)CC(O)C2C(=O)O (centres unmarked) [amphotericin-B]
side effects in humans [3]: fever, anorexia, nausea and vomiting, diarrhea, muscle and joint pain, phlebitis and thiophlebitis, anemia, abnormal renal function, anuria, cardiovascular distress, hypertension and hypotension

c1ccc2c(c1)-c1nccc3ccnc-2c13 [eupolauridine]
anticandidal properties (Candida albicans [4]): possibly remarkable anticandidal properties
